{"source": "patent US20220322656A1", "about": "“PRESERVATION OF ORGANS FOR TRANSPLANT AND NON-TRANSPLANT SURGERIES” (The Regents of the University of Michigan, priority 2019, published 2022)", "key": {"murine donor hearts [1]": {"tested_on": "murine donor hearts", "test": "Hemodynamics (max dp/dt, min dp/dt) of murine donor hearts after cold storage and ex-vivo reperfusion"}, "Myd88": {"tested_on": "Myd88", "test": "Myd88 protein level in donor heart after cold storage (western blot)", "parameters": "species or system murine", "procedure": "(§1) Experiments were conducted during development of embodiments herein to examine the effect of VPA on donor heart function with prolonged cold storage of donor heart. To address this, murine donor hearts were perfused with 7-8 mL HTK solution alone or HTK with 20 mM VPA and then stored the heart for 0, 4, and 8 hours.\n(§2) Experiments were conducted during development of embodiments herein to determine whether pharmacological inhibition of MR signaling improves the heart function after prolonged cold storage period. To address this, murine donor hearts were perfused with 7-8 mL HTK solution alone or HTK with 25 μM spironolactone and then stored the heart for 0, 8 and 12 hours."}, "murine donor hearts [2]": {"tested_on": "murine donor hearts", "test": "Hemodynamics (max dp/dt, min dp/dt) of murine donor hearts after cold storage and ex-vivo reperfusion", "procedure": "FIG. 5A-C. […] The max dp/dt (A) and min dp/dt (B) were calculated by averaging the max/min dp/dt in 20 minutes stable period after different cold storage periods followed by perfusion. The max dp/dt or −min dp/dt of hearts were normalized to percentage of time 0. **p<0.01. (C) VPA suppress the Ill and Myd88 protein level induced by cold storage.\nFIG. 9A-C. […] Following spironolactone treatment, much improved (A) max dp/dt and (B) min dp/dt after prolonged storage after 8 hours and 12 hours was observed compared to HTK alone. N=4. **p<0.01, ***p<0.001 (C) Spironolactone suppress the Il1 and Myd88 protein level induced by cold storage.\nas §1\nMurine donor hearts were isolated and preserved in HTK solution for 0 h, 4 h and 8 h. The cardiac hemodynamics were then examined in an ex-vivo perfusion system. […] This was accompanied by increasing apoptotic cell death by TUNEL staining (FIG. 6C). Occurrence of cell death processes such as apoptosis with increasing storage duration is corroborated by Increased expression of cleaved poly (ADP-ribose) polymerase (PARP), a marker of cell death (FIG. 6D).\nas §2", "remark": "listed apart in the source"}, "Il1": {"tested_on": "Il1", "test": "Il1 protein level in donor heart after cold storage (western blot)", "parameters": "species or system murine", "procedure": "as §1, §2"}, "human donor hearts": {"tested_on": "human donor hearts", "test": "RNA-Seq gene set enrichment analysis of human donor hearts during cold (4° C.) storage", "procedure": "For treatment of human donor hearts, 6 grams of VPA was dissolved in 2 liters of HTK preservation solution and also used 2 liters of HTK solution as control. The solutions were then infused this through the aortic root of human donor hearts (n=3). RNA-Seq was performed to study the transcriptomic effect of VPA on the human heart during cold (4° C.) storage. Total RNA was isolated from the heart tissue stored at 0 h, 4 h and 8 h time points. Gene set enrichment analysis was then performed at different time points with or without VPA treatment."}, "pig hearts": {"tested_on": "pig hearts", "test": "Ex-vivo isolated pig heart perfusion after 6 hours of ice storage in HTK with or without VPA", "conditions": "6 grams VPA in 2 liters HTK, 6 hours on ice", "procedure": "FIG. 1. Coronary vascular resistance after two hours of ex-vivo pig heart perfusion. […] 6 grams of VPA was dissolved in 2 liters of heart preservation solution (histidine-tryptophan-ketoglutarate solution, HTK) and then infused this through the aortic root of freshly sacrificed pig hearts (n=3). For the control group (n=3) only HTK solution was infused. HTK solution is one of the standard donor heart preservation solutions used clinically for heart transplantation. The pig heart was then stored in ice after mechanical arrest with HTK solution as per standard transplant protocol for a total of 6 hours. After 6 hours, the hearts were retrieved and perfused with pig blood in an ex-vivo isolated heart perfusion model. The hearts were then examined for cardiac performance."}, "[3]": {"tested_on": "donor hearts from C57BL/6J mice", "test": "Reanimation of murine donor hearts on ex-vivo Langendorff apparatus after cold storage", "conditions": "up to 5 hours of cold storage, vs HTK solution", "method": "From murine heart experiments, donor hearts from C57BL/6J mice were preserved with either HTK solution or VPA+HTK solution and then stored in ice as per clinical protocols. The cold storage time was varied from 0 hour to 9 hours before reperfusing on an ex-vivo Langendorff apparatus."}, "[4]": {"conditions": "Alda-1 vs HTK alone, after 8 h of cold storage"}, "[5]": {"conditions": "canrenone vs HTK alone, after 8 hours of preservation"}, "[6]": {"conditions": "canrenone vs HTK alone, prolonged storage after 4 hours and 8 hours"}, "[7]": {"conditions": "spironolactone, western blot, listed as spironolactone"}, "[8]": {"conditions": "HTK with 25 μM spironolactone vs HTK alone, after 8 h and 12 h of cold storage"}, "[9]": {"conditions": "HTK with 25 μM spironolactone vs HTK alone, after 8 h and 12 h of cold storage, listed as spironolactone"}, "[10]": {"conditions": "HTK with 20 mM VPA vs HTK alone, after 4 h and 8 h of cold storage"}}, "note": "Entries after “also recorded” stand apart in the source; their conditions may differ."}
{"molecule": "O=C(NCc1ccc2c(c1)OCO2)c1c(Cl)cccc1Cl", "note": "[Alda-1, N-(1,3-benzodioxo1-5-ylmethyl)-2,6-dichlorobenzamide]", "values": [{"measurement": "max dp/dt (donor heart contractility)", "setting": "murine donor hearts [1]; [4]", "result": "dramatically improves; also recorded: improved"}, {"measurement": "min dp/dt (donor heart relaxation)", "setting": "murine donor hearts [1]; [4]", "result": "dramatically improves; also recorded: improved"}]}
{"molecule": "C[C@]12CCC(=O)C=C1C=C[C@@H]1[C@@H]2CC[C@@]2(C)[C@H]1CC[C@@]21CCC(=O)O1", "note": "[Canrenone, canrenone]", "values": [{"measurement": "max dp/dt (donor heart contraction)", "setting": "murine donor hearts [1]; [5]", "result": "significantly improves"}, {"measurement": "min dp/dt (donor heart relaxation)", "setting": "murine donor hearts [1]; [5]", "result": "significantly improves"}, {"measurement": "max dp/dt", "setting": "murine donor hearts [1]; [6]", "result": "much improved"}, {"measurement": "min dp/dt", "setting": "murine donor hearts [1]; [6]", "result": "much improved"}]}
{"molecule": "CC(=O)S[C@@H]1CC2=CC(=O)CC[C@]2(C)[C@H]2CC[C@@]3(C)[C@@H](CC[C@@]34CCC(=O)O4)[C@H]12", "note": "[Spironolactone, spironolactone]", "values": [{"measurement": "Myd88 protein level", "setting": "Myd88; spironolactone, western blot", "result": "suppress"}, {"measurement": "Myd88 protein level", "setting": "Myd88; [7]", "result": "significantly reduced"}, {"measurement": "max dp/dt (donor heart contractility)", "setting": "murine donor hearts [2]; [8]", "result": "much improved"}, {"measurement": "min dp/dt (donor heart relaxation)", "setting": "murine donor hearts [2]; [8]", "result": "much improved"}, {"measurement": "max dp/dt (donor heart contractility)", "setting": "murine donor hearts [2]; [9]", "result": "dramatically improved"}, {"measurement": "min dp/dt (donor heart relaxation)", "setting": "murine donor hearts [2]; [9]", "result": "dramatically improved"}, {"measurement": "Il1 protein level", "setting": "Il1; spironolactone, western blot", "result": "suppress"}, {"measurement": "Il1 protein level", "setting": "Il1; [7]", "result": "significantly reduced"}]}
{"molecule": "CCCC(CCC)C(=O)O", "note": "[VPA, Valproic acid]", "values": [{"measurement": "NES, Inflammatory response", "setting": "human donor hearts; LV, VPA vs HTK Only", "result": "−1.47"}, {"measurement": "NES, Interferon gamma response", "setting": "human donor hearts; LV, VPA vs HTK Only", "result": "−1.65"}, {"measurement": "NES, TNFa signaling via NFkB", "setting": "human donor hearts; LV, VPA vs HTK Only", "result": "−1.68"}, {"measurement": "accumulation of genes related to inflammatory response", "setting": "human donor hearts; LV, during cold storage", "result": "significantly reduced"}, {"measurement": "NES, Inflammatory response", "setting": "human donor hearts; RV, VPA vs HTK Only", "result": "−1.32"}, {"measurement": "NES, P53 pathway", "setting": "human donor hearts; RV, VPA vs HTK Only", "result": "−1.25"}, {"measurement": "NES, TNFa signaling via NFkB", "setting": "human donor hearts; RV, VPA vs HTK Only", "result": "−1.96"}, {"measurement": "activation of p53 proapoptotic pathway", "setting": "human donor hearts; RV, during cold storage", "result": "reduced the activation"}, {"measurement": "expression of inflammatory response genes", "setting": "human donor hearts; RV, during cold storage", "result": "reduced expression"}, {"measurement": "Myd88 protein level", "setting": "Myd88; HTK with 20 mM VPA", "result": "suppress; also recorded: reduced protein level"}, {"measurement": "max dp/dt (donor heart contractility)", "setting": "murine donor hearts [2]; [10]", "result": "improves donor heart function; also recorded: dramatically improved"}, {"measurement": "min dp/dt (donor heart relaxation)", "setting": "murine donor hearts [2]; [10]", "result": "improves donor heart function; also recorded: dramatically improved"}, {"measurement": "fibrillatory arrest during ex-vivo perfusion", "setting": "pig hearts; pig hearts (n=3), control 2 out of 3", "result": "None"}, {"measurement": "Coronary vascular resistance / coronary vascular tone", "setting": "pig hearts; pig hearts, after two hours of ex-vivo perfusion, vs HTK control", "result": "improved; also recorded: trend toward better maintenance"}, {"measurement": "Il1 protein level", "setting": "Il1; HTK with 20 mM VPA", "result": "suppress; also recorded: reduced protein level"}, {"measurement": "cardiac reanimation", "setting": "[3]", "result": "successful and comparable for both groups"}]}
